Results as given in patent EP4578449A1, “PHARMACEUTICAL COMBINATION OF FAK INHIBITOR AND MICROTUBULE INHIBITOR AND USE THEREOF” (Inxmed (Nanjing) Co., Ltd., priority 2022, dated 2024).

Legend:
Assay type in all cases: cell-based
SK-OV-3 cells [1] = assay: FAK silencing combined with Docetaxel, Annexin V apoptosis by flow cytometry; conditions: SK-OV-3 cells transfected with FAK siRNA 50 nM for 24 hours, then 0.3 µM or 1 µM Docetaxel 48 hours; FAK silencing group compared with control siRNA group
SK-OV-3 cells [2] = assay: FAK silencing combined with Docetaxel, Calreticulin (ICD target) by flow cytometry; conditions: SK-OV-3 cells transfected with FAK siRNA 50 nM for 24 hours, then 1 µM Docetaxel 48 hours; vs control siRNA
Method: • 1. FAK silencing combined with Docetaxel promotes apoptosis of ovarian cancer cells […] The siRNA technology was used in the in vitro assay to reduce the expression level of FAK, and combined with Docetaxel for 48 hours; flow cytometry was used to detect apoptosis in control (DMSO) and FAK silenced cells • 2. FAK silencing combined with Docetaxel can effectively promote the production of ICD in ovarian cancer cells SK-OV-3 The siRNA technology was used in the in vitro assay to reduce the expression level of FAK, and combined with Docetaxel for 48 hours. Flow cytometry was used to detect the expression of Calreticulin, the main target of ICD.
Assay antibodies: recombinant Alexa Fluor® 647 fluorescent Anti-Calreticulin antibody (Abcam, ab196159), Annexin V apoptosis detection kit (Invitrogen, A35110).
FAK siRNA was provided by Gene Pharma, and the sequence is shown in the following table: • F: […]; • R: […]
• 1. […] After the transfection for 24 hours, the cells were treated with 0.3 µM or 1 µM of Docetaxel for 48 hours, respectively. The cells were stained using Annexin V kit and detected by flow cytometry. The apoptotic values were counted, compared with those of the control group, and plotted using Graphpad 8.0. […] The cells were fluorescent stained with Calreticulin antibody, and the staining results were analyzed by flow cytometry.

colon cancer CT26 cells = assay: CCK8 cell viability assay, Docetaxel with or without IN10018; conditions: Mus musculus, 72 hours, Docetaxel alone
Method: CT26 cells were cultured with RPMI-1640 (Shanghai Basalmedia, catalog number: L210KJ, batch number: F210916) + 10% FBS (Gibco, catalog number: 10099-141c, batch number: 2158737cp), and passaged twice. When the cells were in good condition, they were placed in a 96-well plate, 3000 cells/well. After the cells were spread for 24 hours, the culture medium containing Docetaxel was added. 10 drug concentrations were set. The first concentration was 30 µM, which was serially diluted 3-fold, and the last one was the control, with the drug concentration of 0. Three compound wells were set for each drug concentration. At the same time, another group of cells was established with the same drug concentration as that in the above method. The difference was that: 5 µM IN10018 was added to each well, the drugs were mixed, and the plate was cultured in a 5% CO2 incubator at 37 °C for 72 hours.
After 72 hours of drug action, the cells were observed under a microscope. 10 µl of CCK8 detection reagent (Cellorlab, classification number: CX001M, batch number: 2571100) was added to each well, and the plate was incubated in a 5% CO2 incubator at 37 °C for 2-4 hours. Then the plate was read using microplate reader OD450 ([…]).

[3] = system: mouse breast cancer 4T1 cells; assay: Docetaxel/Eribulin and Defactinib: microscopy and CRT/Annexin-V/PI flow cytometry; conditions: 48 hours, Defactinib 5 µM, Docetaxel 0.3 µM, Eribulin 0.1 µM, alone or combined with Defactinib
Method: 4T1 cells were cultured in a monolayer in vitro in RPMI-1640 medium with 10% fetal bovine serum in a 37 °C, 5% CO2 incubator. Trypsin was used for routine digestion and passage treatment two to three times a week. When the cells were in the exponential growth phase and the adherent confluence reached 80%-90%, the cells were harvested and plated.
4T1 cells were digested with trypsin, and then the cells were collected and counted. Based on the counting results, the cells were diluted with the corresponding complete culture medium to a concentration of 50,000 cells per milliliter. Then the cells were plated in 12-well cell culture plates, with 2 ml of cell suspension per well, i.e., 100,000 cells.
After plating, the cells were cultured in a 37°C and 5% CO2 incubator.
After 24 hours of plating, the test compounds Defactinib, Docetaxel and Eribulin were added to different wells, respectively.
After 48 hours of drug action, the cells were photographed using a microscope, and then trypsinized and collected for flow cytometry staining.
The cells were washed twice with flow buffer (DPBS + 2% FBS). 0.5 µL of AF647 Anti-Calreticulin Antibody was added to each well, and mixed well. The cells were incubated at 4°C in the dark for 20 min. […]
After the assay, the cell positive rate was analyzed by Flowjo (V10) software.

CC(=O)O[C@@]12CO[C@@H]1C[C@H](O)[C@@]1(C)C(=O)[C@H](O)C3=C(C)[C@@H](OC(=O)[C@H](O)[C@@H](NC(=O)OC(C)(C)C)c4ccccc4)C[C@@](O)([C@@H](OC(=O)c4ccccc4)[C@H]21)C3(C)C [Docetaxel]
apoptosis (Annexin V kit) (SK-OV-3 cells [1]): significantly enhanced
release and exposure of Calreticulin (SK-OV-3 cells [2]): significantly enhanced
IC50 (colon cancer CT26 cells): 190 nM
cell status (cell death) under a microscope [3]: obvious
